No end group written: not given here.
Experiments:
[1] = Turbidity assay of endotoxin complexation; assay type: binding, Escherichia coli; conditions: for avidity order (degree of insoluble peptide-endotoxin complex formation): 2-fold molar excess of synthetic peptide
Description: FIG. 2. Endotoxin complexation activity of the synthetic peptides. Peptides at concentrations of 100 to 600 μg/ml were incubated with E. coli D31m4 Re or J5 LPS at 100 μg/ml in a total volume of 100 μl pyrogen-free phosphate buffered saline (PBS) in plastic ELISA microtiter plates for 30 min at 23° C. The turbidity produced by the insoluble peptide-endotoxin complexes was measured at 340 nm. The values represent the mean of three determinations and were corrected for controls containing the same concentrations of endotoxin or peptide.
Double-immunodiffusion of the peptides of the invention against ‘rough’ R-type E. coli D31m4 Re-LPS (List Biological Laboratories Inc., Calif.) or the structurally more complex ‘smooth’ S-type E. coli 0111:B4 LPS (Sigma Chemical Co., Rockford, Ill.) was performed in 0.8% (w/v) agarose containing 50 mM Tris and 0.1% (w/v) Triton X100, pH 7.5. for 16 h at 20° C. PmB and BPI(85-102) were included as control compounds for comparative purposes. The microprecipitates formed were visualized by Coommassie brilliant blue staining. […] Since the amount of precipitate formed is a function of valency, the peptides of the invention appear to be capable of a high degree of intermolecular binding of LPS molecules via the Lipid A moieties. […] A turbidity assay was employed for a direct comparison of the endotoxin-binding activity or avidity of selected synthetic peptides according to the invention using the ‘rough’ serotypes E. coli Re or Rc (J5) LPS. PmB and BPI(85-102) were included as control compounds for comparative purposes. The degree of precipitation of endotoxin by the synthetic peptides according to the invention was determined by measurement of the optical density of insoluble complexes formed at 340 nm (FIG. 2). In most instances optimal complexation of Re or J5 LPS by the synthetic peptides of the invention was evident at a molar ratio of peptide to endotoxin of 1 to 2. The control BPI(85-102) peptide was required at a 4-fold molar excess for approximately the same degree of complexation. […] There was no significant difference between complexation of Re or the structurally more complex J5-LPS by the synthetic peptides. […] The Lipid A binding affinity of the synthetic peptides were directly compared in a solid-state endotoxin-binding assay. Binding characteristics of biotinylated derivatives of the synthetic peptides BP1, BP2, BP2.1 and the control peptide BPI(85-102) were determined on ELISA microtiter plates coated with E. coli D31m4 Lipid A. Specific binding of the biotinylated peptides to the immobilized Lipid A was determined by development with Streptavidin-HRP and 3, 5, 3′, 5′ tetra-methylbenzidine (TMB) substrate and expressed as the corrected optical density at 450 nm. […] The affinity of the novel synthetic peptide BP2 for endotoxin of increasing complexity as well as the effect of plasma on binding was examined with the use of the ELISA microplate assay.

[2] = system: IL-6 inducing ability of E. coli 0111:B4 LPS; experiment: Effect of heparin on neutralization of IL-6 inducing ability of LPS; assay type: cell-based, human; conditions: for reduction of LPS neutralizing efficacy by heparin: same heparin concentration (0.4 U/ml)
Description: FIG. 10. Effect of heparin on the efficacy of neutralization of the IL-6 inducing ability of E. coli 0111:B4 LPS by synthetic peptide or Polymyxin B in whole blood diluted 1 in 10. Synthetic peptides at concentrations of 2 μg/ml or PmB at 1 μg/ml was pre-incubated for 30 min at 37° C. with E. coli 0111:B4 LPS at 1 ng/ml in RPMI medium containing heparin in the concentration range of 0.1 to 100 I.U/ml. The residual cytokine inducing ability of the treated endotoxin was determined in diluted whole blood containing heparin at 2 IU/ml after incubation for 16 h at 37° C. Each value is the mean of triplicate determinations corrected for background. Controls contained only LPS.
The endotoxin neutralizing activities of the synthetic peptides of the invention were evaluated by investigating the effect on LPS-stimulated release of the pro-inflammatory cytokines, tumor necrosis factor alpha (TNF-α), interleukin-6 (IL-6) or interleukin-8 (IL-8) in a well characterized in vitro human whole blood bioassay system. In one series of experiments, dilutions of E. coli 0111:B4 LPS from 0.2 to 1 ng/ml were pre-incubated with synthetic peptides at 10 μg/ml concentrations in RPMI medium for 30 min at 20° C. and added to diluted whole blood. Cytokine concentrations in the supernatants were determined after further incubation for 16 h at 37° C. in the presence of 5% CO2 by specific and sensitive ELISA kits (CLB, Amsterdam, The Netherlands). In another series of experiments, the effects of synthetic peptides at concentrations of 2,5, 5 and 10 μg/ml on IL-6 induction by 1 ng/ml 0111:B4 LPS was examined after simultaneous addition of synthetic peptide and LPS to diluted whole blood. […] The control peptide BPI(85-102) was ineffective in reducing cytokine production under these conditions even at a 4-fold higher concentration. This probably reflects the differences in binding affinity for Lipid A of BP1 and BP2 compared with the BPI(85-102) peptide of approximately 5 and 10-fold, respectively. An additional factor which may have influenced binding of the control peptide to endotoxin is the presence of heparin employed as an anti-coagulant at a concentration of […] in the assay system. […] On this basis, it was predicted that the extent of reduction of endotoxin neutralizing efficacy would be a function of the differences in affinity between peptides for endotoxin and heparin. To verify this hypothesis, a series of experiments to determine the effect of increasing heparin concentrations on the efficacy of endotoxin neutralization during pre-incubation of synthetic peptide and E. coli 0111:B4 LPS were performed. FIG. 10 illustrates a dose-dependent suppression of endotoxin neutralizing activity of the synthetic peptides by heparin as exemplified by a reduction of IL-6 inhibition. […]

Substance | avidity order (degree of insoluble peptide-endotoxin complex formation) [1] | reduction of LPS neutralizing efficacy by heparin [2] | molar excess required for approximately the same degree of complexation ([1]; Re or J5 LPS) | molar excess of heparin with respect to LPS for 50% competitive inhibition [2]
GRLRKKWKAFKKFLKILAC [BP1] | BP2.1>BP2.2>BP2>BP1>PmB >BPI(85-102) | 75% |  | 
Ile-Lys-Ile-Ser-Gly-Lys-Trp-Lys-Ala-Gin-Lys-Arg-Phe-Leu-Lys-Met-Ser-Gly-(Cys) (IKISGKWKAQKRFLKMSGC; listed as Homo sapiens) [BPI(85-102), reference compound] | BP2.1>BP2.2>BP2>BP1>PmB >BPI(85-102) | 80% | 4 fold | 
GKWKLFKKAFKKFLKILAC-OH [BP2, Gly-Lys-Trp-Lys-Leu-Phe-Lys-Lys-Ala-Phe-Lys-Lys-Phe-Leu-Lys-Ile-Leu-Ala-Cys] | BP2.1>BP2.2>BP2>BP1>PmB >BPI(85-102) |  |  | approximately 10,000 fold

Source: patent US6624140B1, “Synthetic peptides with antimicrobial and endotoxin neutralizing properties for management of the sepsis syndrome” (Academisch Ziekenhuis Bij de Universiteit van Amsterdam …, priority 1997, dated 2003)
